In the supplement of paper PMC10307832:

Columns and labels:
Assay in all cases: relative viability (nuclei count vs DMSO), 5 days (fraction); higher = more cells survive
COR-L 105 = test system: COR-L 105
Summary of the method: (§1)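 Relative viability divides the nuclei count in treated wells by that in vehicle wells. Lung cancer cell lines were seeded in 1536-well plates, dosed by pin tool the next day, and fixed and stained after 5 days in one step with final 0.05% Triton X-100, 1% formaldehyde and 1 ug/ml Hoechst. Dosing was a single drug or a fixed anchor-drug dose plus five library-drug doses (not always all listed) in √10 steps, and values are medians of duplicate plates imaged at 4×.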

COR-L23 = test system: COR-L23
Summary of the method: as §1

EKVX = test system: EKVX
Summary of the method: as §1

HARA = test system: HARA
Summary of the method: as §1

HCC-15 = test system: HCC-15
Summary of the method: as §1

HOP-62 = test system: HOP-62
Summary of the method: as §1

NCI-H1355 = test system: NCI-H1355
Summary of the method: as §1

NCI-H1395 = test system: NCI-H1395
Summary of the method: as §1

NCI-H1734 = test system: NCI-H1734
Summary of the method: as §1

NCI-H1755 = test system: NCI-H1755
Summary of the method: as §1

NCI-H1793 = test system: NCI-H1793
Summary of the method: as §1

C=C1C(=O)O[C@@H](CCCCCCCC)[C@@H]1C(=O)O [C-75] + CS(=O)(=O)CCNCc1ccc(-c2ccc3ncnc(Nc4ccc(OCc5cccc(F)c5)c(Cl)c4)c3c2)o1 [Lapatinib] (partner 2 µM)
relative viability (COR-L 105; first compound 0.08 µM): 0.299
relative viability (COR-L 105; first compound 0.253 µM): 0.315
relative viability (COR-L 105; first compound 0.8 µM): 0.374
relative viability (COR-L 105; first compound 2.53 µM): 0.309
relative viability (COR-L 105; first compound 8 µM): 0.414
relative viability (COR-L23; first compound 0.08 µM): 0.868
relative viability (COR-L23; first compound 0.253 µM): 0.94
relative viability (COR-L23; first compound 0.8 µM): 0.919
relative viability (COR-L23; first compound 2.53 µM): 0.469
relative viability (COR-L23; first compound 8 µM): 1.01
relative viability (EKVX; first compound 0.08 µM): 0.266
relative viability (EKVX; first compound 0.253 µM): 0.211
relative viability (EKVX; first compound 0.8 µM): 0.224
relative viability (EKVX; first compound 2.53 µM): 0.184
relative viability (EKVX; first compound 8 µM): 0.214
relative viability (HARA; first compound 0.08 µM): 0.619
relative viability (HARA; first compound 0.253 µM): 0.511
relative viability (HARA; first compound 0.8 µM): 0.646
relative viability (HARA; first compound 8 µM): 0.825
relative viability (HCC-15; first compound 0.08 µM): 0.838
relative viability (HCC-15; first compound 0.253 µM): 0.808
relative viability (HCC-15; first compound 0.8 µM): 0.878
relative viability (HCC-15; first compound 2.53 µM): 0.839
relative viability (HCC-15; first compound 8 µM): 0.894
relative viability (HOP-62; first compound 0.08 µM): 1.07
relative viability (HOP-62; first compound 0.253 µM): 1.09
relative viability (HOP-62; first compound 0.8 µM): 0.955
relative viability (HOP-62; first compound 2.53 µM): 0.713
relative viability (HOP-62; first compound 8 µM): 0.817
relative viability (NCI-H1355; first compound 0.08 µM): 0.939
relative viability (NCI-H1355; first compound 0.253 µM): 1.08
relative viability (NCI-H1355; first compound 0.8 µM): 0.884
relative viability (NCI-H1355; first compound 2.53 µM): 0.943
relative viability (NCI-H1355; first compound 8 µM): 1.01
relative viability (NCI-H1395; first compound 0.08 µM): 0.997
relative viability (NCI-H1395; first compound 0.253 µM): 1.11
relative viability (NCI-H1395; first compound 0.8 µM): 0.949
relative viability (NCI-H1395; first compound 2.53 µM): 1.49
relative viability (NCI-H1395; first compound 8 µM): 1.06
relative viability (NCI-H1734; first compound 0.08 µM): 0.981
relative viability (NCI-H1734; first compound 0.253 µM): 1.13
relative viability (NCI-H1734; first compound 0.8 µM): 1.02
relative viability (NCI-H1734; first compound 2.53 µM): 0.362
relative viability (NCI-H1734; first compound 8 µM): 0.908
relative viability (NCI-H1755; first compound 0.08 µM): 1.01
relative viability (NCI-H1755; first compound 0.253 µM): 0.946
relative viability (NCI-H1755; first compound 0.8 µM): 0.958
relative viability (NCI-H1755; first compound 2.53 µM): 0.743
relative viability (NCI-H1755; first compound 8 µM): 1.06
relative viability (NCI-H1793; first compound 0.08 µM): 0.635
relative viability (NCI-H1793; first compound 0.253 µM): 0.785
relative viability (NCI-H1793; first compound 0.8 µM): 0.493
relative viability (NCI-H1793; first compound 2.53 µM): 0.483
